According to ChEMBL document CHEMBL1201862, “PubChem BioAssay data set” (2004):
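Five concentrations, 48 hours, 96-well plates. GI50 = concentration required for 50% inhibition of growth.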 Activity calls are given as the source filed them. Rule as the data show it: active = GI50 up to about 1.1 µM and inactive = higher.

Experiments:
Assay in all cases: NCI tumour cell line growth inhibition, 48 h
A549 = tested on: A549
CAKI-1 = tested on: CAKI-1
COLO 205 = tested on: COLO 205
EKVX = tested on: EKVX
HCT-116 = tested on: HCT-116
HT-29 = tested on: HT-29
LOX IMVI = tested on: LOX IMVI
MCF7 = tested on: MCF7
Malme-3M = tested on: Malme-3M
RPMI-8226 = tested on: RPMI-8226
SF-295 = tested on: SF-295
SK-MEL-2 = tested on: SK-MEL-2
SK-OV-3 = tested on: SK-OV-3
SN12C = tested on: SN12C
SR = tested on: SR
U-251 = tested on: U-251
UACC-257 = tested on: UACC-257
UACC-62 = tested on: UACC-62
NCI-H522 = tested on: NCI-H522
SNB-19 = tested on: SNB-19

Measured: GI50

CCOC(=O)O/C(=C\c1ccc(OC)cc1)c1c(OC(=O)OCC)n(C(=O)OCC)c2ccccc12
inactive: A549 34.4 µM | CAKI-1 57.9 µM | COLO 205 > 100 µM | EKVX 88.9 µM | HCT-116 33.9 µM | HT-29 47.3 µM | LOX IMVI 42.3 µM | MCF7 25.1 µM | Malme-3M 58.6 µM | RPMI-8226 1.83 µM | SF-295 28.4 µM | SK-MEL-2 35 µM | SK-OV-3 41.5 µM | SN12C 31.6 µM | SR 15.3 µM | U-251 24.7 µM | UACC-257 34.5 µM | UACC-62 42.7 µM

Cn1c2ccccc2n2c(=O)c3cc([N+](=O)[O-])ccc3c(C#N)c12
inactive: A549 > 100 µM | CAKI-1 > 10 µM | COLO 205 > 100 µM | EKVX > 100 µM | HCT-116 > 100 µM | HT-29 > 100 µM | LOX IMVI > 100 µM | MCF7 > 100 µM | NCI-H522 > 100 µM | RPMI-8226 > 100 µM | SF-295 83.2 µM | SK-MEL-2 > 100 µM | SK-OV-3 > 100 µM | SNB-19 > 100 µM | SR > 100 µM | U-251 > 100 µM | UACC-257 > 100 µM | UACC-62 > 100 µM

C/C=C1/CN2CC[C@@H]3c4ccccc4N4[C@H](C(=O)OC)[C@H]1C[C@H]2[C@]34/C=C/C1=COC[C@@H]2[C@H]1C[C@H]1c3c(c4ccccc4n3C)C[C@@H]2N1C
inactive: A549 4.16 µM | CAKI-1 4.1 µM | COLO 205 3.4 µM | EKVX 2.99 µM | HCT-116 3.89 µM | HT-29 2.77 µM | LOX IMVI 4.19 µM | MCF7 4.55 µM | Malme-3M 4.62 µM | RPMI-8226 4.09 µM | SF-295 4.45 µM | SK-MEL-2 4.33 µM | SK-OV-3 4.57 µM | SN12C 4.33 µM | SNB-19 3.64 µM | SR 6.1 µM | U-251 3.72 µM | UACC-257 4.52 µM | UACC-62 4.86 µM

COc1ccccc1CNCc1nc2ccccc2[nH]1
inactive: A549 > 100 µM | CAKI-1 > 100 µM | COLO 205 > 100 µM | EKVX 92.9 µM | HCT-116 > 100 µM | HT-29 78.7 µM | LOX IMVI > 100 µM | MCF7 > 100 µM | NCI-H522 > 100 µM | RPMI-8226 > 100 µM | SF-295 > 100 µM | SK-MEL-2 > 100 µM | SN12C > 100 µM | SNB-19 > 100 µM | SR > 100 µM | U-251 > 100 µM | UACC-257 > 100 µM | UACC-62 > 100 µM

Cc1nn(C(=O)Cc2ccccc2)c2c1C(c1ccc3ccccc3c1O)SC(=N)N2 (centres undefined)
inactive: A549 > 100 µM | CAKI-1 > 100 µM | COLO 205 > 100 µM | EKVX > 100 µM | HCT-116 > 100 µM | HT-29 > 100 µM | LOX IMVI > 100 µM | MCF7 > 100 µM | NCI-H522 67.8 µM | RPMI-8226 76.2 µM | SF-295 > 100 µM | SK-OV-3 > 100 µM | SN12C > 100 µM | SNB-19 > 100 µM | SR 48.9 µM | UACC-257 > 100 µM | UACC-62 > 100 µM

CCCC1CCC(=C2C(=O)CCC2=O)O1 (centres undefined)
inactive: A549 > 100 µM | CAKI-1 > 100 µM | COLO 205 > 100 µM | EKVX > 100 µM | HCT-116 > 100 µM | HT-29 > 100 µM | LOX IMVI > 100 µM | MCF7 > 100 µM | NCI-H522 > 100 µM | RPMI-8226 > 100 µM | SF-295 > 100 µM | SK-MEL-2 > 100 µM | SK-OV-3 > 100 µM | SN12C > 100 µM | SNB-19 > 100 µM | SR > 100 µM | U-251 > 100 µM | UACC-257 > 100 µM | UACC-62 > 100 µM
